The results in this text go back to patent EP0637237B1, “CALCIUM RECEPTOR-ACTIVE MOLECULES” (BRIGHAM AND WOMEN'S HOSPITAL, INC., priority 1993, dated 1994).

SMILES strings stand for the structures. Where two headings read alike, the source gives them in different places.

The target in one assay is T1, C-cell Ca^2+ receptor (Rattus norvegicus, UniProt P48442).
T1 sequence (P48442 20-1079): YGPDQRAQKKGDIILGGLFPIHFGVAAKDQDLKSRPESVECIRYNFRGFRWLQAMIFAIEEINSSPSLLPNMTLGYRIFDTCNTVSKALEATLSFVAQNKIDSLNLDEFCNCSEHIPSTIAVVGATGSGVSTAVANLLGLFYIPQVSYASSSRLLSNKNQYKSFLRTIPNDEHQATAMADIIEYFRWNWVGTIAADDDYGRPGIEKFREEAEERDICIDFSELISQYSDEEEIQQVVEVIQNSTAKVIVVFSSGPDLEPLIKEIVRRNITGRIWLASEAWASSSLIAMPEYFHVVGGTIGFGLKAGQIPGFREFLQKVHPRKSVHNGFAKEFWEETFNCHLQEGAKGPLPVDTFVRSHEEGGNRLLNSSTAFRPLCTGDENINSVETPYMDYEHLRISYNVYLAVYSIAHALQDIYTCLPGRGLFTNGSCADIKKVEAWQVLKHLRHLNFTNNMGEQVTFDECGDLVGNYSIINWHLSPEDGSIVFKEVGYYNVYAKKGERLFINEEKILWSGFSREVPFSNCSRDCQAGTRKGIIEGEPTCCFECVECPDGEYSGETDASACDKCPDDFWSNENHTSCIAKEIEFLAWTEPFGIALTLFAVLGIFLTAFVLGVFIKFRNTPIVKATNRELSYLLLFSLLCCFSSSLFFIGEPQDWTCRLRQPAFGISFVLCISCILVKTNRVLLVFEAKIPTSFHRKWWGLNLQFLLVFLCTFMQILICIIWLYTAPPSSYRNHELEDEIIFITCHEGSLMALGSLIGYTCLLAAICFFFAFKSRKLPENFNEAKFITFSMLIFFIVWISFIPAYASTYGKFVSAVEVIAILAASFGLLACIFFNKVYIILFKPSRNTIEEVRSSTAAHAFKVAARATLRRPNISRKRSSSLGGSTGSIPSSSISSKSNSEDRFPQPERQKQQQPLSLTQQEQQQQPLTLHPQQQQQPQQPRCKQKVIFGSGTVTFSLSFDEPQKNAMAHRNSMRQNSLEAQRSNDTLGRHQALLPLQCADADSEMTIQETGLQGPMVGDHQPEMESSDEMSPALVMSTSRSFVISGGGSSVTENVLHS
The class given is cell-based. To be noted: Table 6; rMTC 6-23 cells, fura-2; inactive = no increase in cytosolic Ca2+ at 1-5 mM.

Assay [1] can be described thus: Serum ionized Ca2+ in the 5/6 nephrectomized rat (secondary hyperparathyroidism model). The class given is in vivo, Sprague-Dawley rats. To be noted: 10 mg/kg i.p. An excerpt:
An accepted and widely used animal model of secondary hyperparathyroidism arising from chronic renal failure is the 5/6 nephrectomized rat. […] Male Sprague-Dawley rats (250 g) received a 5/6 nephrectomy and were allowed to recover for 2 weeks. At this time they were normocalcemic (due to elevated levels of serum PTH).

A short description of assay [2]: Serum or whole blood ionized Ca2+ and PTH in rats in vivo. The arrangement: species or system Sprague-Dawley rats. An excerpt: Male Sprague-Dawley rates (200 g) were maintained on a low calcium diet for one week prior to receiving test substance or vehicle as control. Blood was collected from the tail vein three hours after the intra-peritoneal administration of NPS 467. […]

The target in assay [3] is T2, parathyroid cell Ca^2+ receptor (Bos taurus, UniProt P35384).
T2 sequence (P35384 20-1085): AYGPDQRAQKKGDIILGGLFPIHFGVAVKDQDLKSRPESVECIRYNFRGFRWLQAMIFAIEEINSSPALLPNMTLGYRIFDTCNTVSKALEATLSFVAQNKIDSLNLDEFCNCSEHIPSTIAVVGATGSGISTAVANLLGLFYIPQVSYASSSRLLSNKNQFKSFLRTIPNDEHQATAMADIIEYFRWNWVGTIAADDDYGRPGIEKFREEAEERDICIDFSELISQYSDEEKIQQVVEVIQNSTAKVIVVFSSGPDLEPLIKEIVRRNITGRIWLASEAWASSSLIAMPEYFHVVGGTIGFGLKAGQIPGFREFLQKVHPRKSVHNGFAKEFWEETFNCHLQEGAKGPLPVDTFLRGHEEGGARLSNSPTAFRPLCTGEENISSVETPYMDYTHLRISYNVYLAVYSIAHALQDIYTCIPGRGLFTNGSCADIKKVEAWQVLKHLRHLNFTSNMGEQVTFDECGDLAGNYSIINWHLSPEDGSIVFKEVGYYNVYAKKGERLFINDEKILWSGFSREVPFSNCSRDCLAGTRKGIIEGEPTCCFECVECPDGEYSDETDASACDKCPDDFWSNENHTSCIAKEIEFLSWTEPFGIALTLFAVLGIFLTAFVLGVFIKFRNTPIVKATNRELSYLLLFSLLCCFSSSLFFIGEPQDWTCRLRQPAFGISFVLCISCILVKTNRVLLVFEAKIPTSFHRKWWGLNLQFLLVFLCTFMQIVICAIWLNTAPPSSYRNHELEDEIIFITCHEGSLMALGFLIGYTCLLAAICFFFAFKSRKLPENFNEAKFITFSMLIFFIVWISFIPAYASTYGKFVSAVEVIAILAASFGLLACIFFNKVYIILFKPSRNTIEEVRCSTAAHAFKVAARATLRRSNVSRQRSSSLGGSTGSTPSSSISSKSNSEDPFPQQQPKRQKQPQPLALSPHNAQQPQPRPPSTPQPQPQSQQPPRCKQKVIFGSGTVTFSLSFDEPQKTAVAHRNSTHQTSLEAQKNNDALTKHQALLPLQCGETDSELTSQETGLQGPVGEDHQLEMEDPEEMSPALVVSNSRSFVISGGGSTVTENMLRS
The class given is cell-based, bovine.

Assay [4] in a line: Serum ionized Ca2+ in parathyroidectomized rats. Format: in vivo. The settings on record: single dose 10 mg/kg i.p., over a period of 6 hours. From the text:
To determine the primary target tissue upon which NPS 467 acts to cause a hypocalcemic response, the para thyroid glands in rats were surgically removed.

[5] abbreviates: normal calcium-replete diet, 10 mg/kg i.p.

In the case of `NCCCNCCCCNCCCNCCCN(O)CCCNC(=O)Cc1c[nH]c2cccc(O)c12` [NPS 015], the “EC50(µM) C-CELL” value at C-cell Ca^2+ receptor was “inactive”.

Turning to `COc1cccc([C@@H](C)NCCCc2ccccc2)c1` [NPS R-467], the “time of the fall in serum ionized Ca2+” value in assay [1] was no more than 2 h. Also, in assay [1] (5/6 nephrectomy, 2 weeks recovery), the “serum ionized Ca2+ levels” value is listed as 83 % of controls. Moreover, in assay [2] (each compound at 5 mg/kg body weight, Fig. 42), the “potency in lowering serum Ca2+ in vivo, enantiomers compared” value was “more potent than the S-isomer in lowering serum Ca^2+ in vivo”. Moreover, in assay [2] (setting [5]), the “time serum ionized Ca2+ remained depressed” value is listed as “up to 6 hours” and the “time to maximal fall in serum ionized Ca2+” value is no more than 1 h. Moreover, the “decrease in serum ionized Ca2+ from the control level” value in assay [2] (normal calcium-replete diet, single dose 10 mg/kg i.p., at 1 hr) came out at 22%. In addition, in assay [3] (30 àM NPS R-467 alone, Ca2+-free buffer), the “[Ca2+]i response in Ca2+-free buffer” value is “no increase in [Ca^2+]i”. Besides, in assay [3] (NPS R-467 30 µM added after 10 µM neomycin), the “[Ca2+]i response in Ca2+-free buffer after neomycin” value was “elicited a transient increase in [Ca^2+]i”. In addition, the “[Ca2+]i response in Ca2+-free buffer after neomycin” value in assay [3] (NPS R-467 30 µM added after 100 µM neomycin) is “did not cause an increase in [Ca^2+]i”. In addition, the “change in serum ionized Ca2+ levels” value in assay [4] is “did not cause any change in serum ionized Ca^2+ levels”.
